A short description of data set [1]: In vitro release of MT in FaSGF with model fitting. Type of data set: physicochemical. The note with it: 37° C., 150 rpm. The protocol: Receptacle cap type rafts were used for the release studies as the receptacle allows the loading of the FD, MP, and FM. The receptacle cap assembly also ensures that the system can be adopted for other drugs easily. This design was used to prevent the interaction of drugs with water in the hydrogel. 100 mg of free drug MT was weighed in triplicates and added to the receptacle of the raft before closing the lid to complete the assembly. Similarly, 20 mg of the MPs (prepared in Example 7) or one FM (prepared in Example 8) was weighed in replicates and added to the receptacle of the raft and closed with cap to obtain the raft containing MT in different forms. Drug forms that were not encased in the raft served as controls.
Required amounts of FD, MP, or FM were added to the receptacle of the raft, and the cap was used to close the structure to obtain FD encased in raft (FD-R), MP encased in raft (MP-R), and FM encased in raft (FM-R). This raft assembly was then tested under simulated gastric conditions using FaSGF in a shaking incubator (150 rpm) at 37° C. All experiments were carried out in triplicates. […] The collected samples were analyzed for the drugs using HPLC. For MT, acetonitrile:PBS (60:40) (PBS adjusted to pH 4.7) was used as the mobile phase at a flow rate of 0.8 ml/min and detected at 244 nm. […]

For data set [2] the following is noted: cited from earlier work.
Data set [3] is described as follows: In vitro release of Ris in FaSGF with model fitting. The data set is classed as physicochemical. As to conditions: not encased in raft.
Description: This raft assembly was then tested under simulated gastric conditions using FaSGF in a shaking incubator (150 rpm) at 37° C. All experiments were carried out in triplicates. At specified time points, the release media were collected and replaced with an equal volume of fresh FaSGF. The collected samples were analyzed for the drugs using HPLC. […] Each drug form, without the raft, served as a control. To elucidate the mechanism of drug release, the release data were fitted to mathematical models.
Four different forms of the drug were used: 1. free drug; 2. commercial tablet; 3. drug encapsulated MPs; and 4. drug encapsulated FMes. […] Each drug form, without the raft, served as a control.
Receptacle cap type rafts were used for the release studies as the receptacle allows the loading of the FD, MP, and FM. […] Drug forms that were not encased in the raft served as controls.

Molecules are shown by their SMILES. Counter-ions that a name gives are not always drawn.

Consider `COCCc1ccc(OCC(O)CNC(C)C)cc1` (stereo not shown) [MT, metoprolol tartrate], for which, in data set [1], the “time of MT release (sustained over / dissolved completely in), in words” value is “one hour”. Further, the “water solubility (in words)” value in data set [2] is listed as “water-soluble”.

Regarding `Cc1nc2n(c(=O)c1CCN1CCC(c3noc4cc(F)ccc34)CC1)CCCC2` [Ris, Risperidone], in data set [3], the “time to complete dissolution, uncased” value stood at 1 h. In addition, in data set [2], the “water solubility (in words)” value is recorded as “insoluble in water”.

Values taken from US20250144020A1, “ULTRA-LONG FLOATING HYDROGEL RAFT FOR PROLONGED GASTRIC RETENTION AND APPLICATIONS REQUIRING BUOYANCY WITH CONTROLLED-RELEASE” (Nanyang Technological University, priority 2022, published 2025).
